Test results: ChEMBL document CHEMBL4152314, “Symmetrical and unsymmetrical substituted 2,5-diarylidene cyclohexanones as anti-parasitic compounds” (Eur J Med Chem, 2018)

Assays:
Trypanosoma cruzi [1] = assay: Antiparasitic activity against epimastigote form of Trypanosoma cruzi Y assessed as parasite growth inhibition after 96 hrs by Neubauer hemocytometer; type: functional, organism-based
Trypanosoma cruzi [2] = assay: Antiparasitic activity against trypomastigote form of Trypanosoma cruzi assessed as parasite lysis after 24 hrs by Pizzi-Brener method; type: functional, organism-based
Leishmania amazonensis = assay: Antiparasitic activity against promastigote form of Leishmania amazonensis MHOM/BR/Josefa assessed as parasite growth inhibition after 72 hrs by Neubauer hemocytometer; type: functional, organism-based
[3] = Cytotoxicity against African green monkey Vero cells assessed as growth inhibition; type: cell-based; conditions: chlorocebus sabaeus
[4] = Selectivity index, ratio of CC50 for African green monkey Vero cells to IC50 for epimastigote form of Trypanosoma cruzi Y; type: toxicity; conditions: read-out: Ratio CC50/IC50
[5] = Selectivity index, ratio of CC50 for African green monkey Vero cells to IC50 for promastigote form of Leishmania amazonensis MHOM/BR/Josefa; type: toxicity; conditions: read-out: Ratio CC50/IC50
[6] = Selectivity index, ratio of CC50 for African green monkey Vero cells to EC50 for trypomastigote form of Trypanosoma cruzi; type: toxicity; conditions: read-out: Ratio CC50/EC50

Compound | IC50 (Trypanosoma cruzi [1]) [µM] | EC50 (Trypanosoma cruzi [2]) [µM] | IC50 (Leishmania amazonensis) [µM] | CC50 [3] [µM] | selectivity ratio [4] | selectivity ratio [5] | selectivity ratio [6]
COc1cccc(/C=C2\CCCCC2=O)c1OC | > 100 | > 100 | > 100 | 720 | – | – | –
COc1cc([N+](=O)[O-])ccc1/C=C1\CCC/C(=C\c2cccc(OC)c2OC)C1=O | 26.5 | > 100 | 4.8 | 120 | 4.5 | 25 | –
COc1cc(/C=C2\CCC/C(=C\c3cc(OC)c(OC)c(OC)c3)C2=O)cc(OC)c1OC | 9.5 | 69.5 | 17 | 155 | 16.3 | 9.1 | 2.2
COc1ccc(/C=C2\CCC/C(=C\c3cccc(OC)c3OC)C2=O)cc1 | 5.2 | 27.4 | 8.9 | 401 | 77.2 | 45.1 | 14.6
COc1ccc(/C=C2\CCC/C(=C\c3cccc(Br)c3)C2=O)cc1 | 20.2 | > 100 | 5.7 | 30 | 1.5 | 5.3 | –
COc1ccc(/C=C2\CCC/C(=C\c3ccccc3)C2=O)cc1 | 20.6 | > 100 | 11.8 | 291 | 14.1 | 24.6 | –
O=C(Cn1ccnc1[N+](=O)[O-])NCc1ccccc1 [BENZNIDAZOLE] | 6.5 | – | – | – | – | – | –
O=C1/C(=C/c2ccccc2)CCC/C1=C\c1ccccc1 [2,6-DIBENZYLIDENECYCLOHEXANONE] | 18.4 | 76.2 | 2.8 | 40.6 | 2.2 | 14.5 | 0.5
COc1cccc(/C=C2\CCC/C(=C\c3cccc(Br)c3)C2=O)c1OC | 33 | 72 | 19.8 | 31.5 | 1 | 1.6 | 0.4
COc1ccc(/C=C2\CCC/C(=C\c3cccc(OC)c3OC)C2=O)cc1OC | 28.5 | 23.8 | 4.5 | 36.1 | 1.3 | 8 | 1.5
COc1ccc(/C=C2\CCC/C(=C\c3ccc(Br)cc3)C2=O)cc1 | 55 | > 100 | 17.3 | 250 | 4.5 | 14.5 | –
COc1cccc(/C=C2\CCC/C(=C\c3ccc(F)cc3)C2=O)c1OC | 24.4 | 70.2 | 4.7 | 33.2 | 1.4 | 7.1 | 0.5
COc1ccc(/C=C2\CCC/C(=C\c3ccc(Cl)cc3)C2=O)cc1 | 21.6 | > 100 | 17.8 | 401 | 18.6 | 22.5 | –
COc1cccc(/C=C2\CCC/C(=C\c3ccc([N+](=O)[O-])cc3)C2=O)c1OC | 33.3 | 27.7 | 3.9 | < 10 | – | – | –
COc1cccc(/C=C2\CCC/C(=C\C(C)Cc3ccc4c(c3)OCO4)C2=O)c1OC (stereo not drawn) | 26.1 | 82 | 10 | 178 | 6.8 | 17.8 | 2.2
COc1ccc(/C=C2\CCC/C(=C\c3ccccc3F)C2=O)cc1 | 13.6 | > 100 | 9 | 270 | 19.8 | 29.9 | –
O=C1/C(=C/c2ccc(Br)cc2)CCC/C1=C\c1ccc(Br)cc1 | 29.3 | 49 | 4.2 | 58 | 2 | 13.8 | 1.2
COc1cccc(/C=C2\CCC/C(=C\c3cccc(OC)c3OC)C2=O)c1OC | 23.6 | 27 | 4.1 | 24.9 | 1.1 | 6.1 | 0.9

Compound | IC50 (Trypanosoma cruzi [1]) [µM] | EC50 (Trypanosoma cruzi [2]) [µM] | IC50 (Leishmania amazonensis) [µM] | CC50 [3] [µM] | selectivity ratio [4] | selectivity ratio [5] | selectivity ratio [6]
O=C1/C(=C/c2ccccc2Cl)CCC/C1=C\c1ccccc1Cl | 27.8 | 36.2 | 4.6 | 30.6 | 1.1 | 6.7 | 0.8
COc1cccc(/C=C2\CCC/C(=C\c3cc(OC)c(OC)c(OC)c3)C2=O)c1OC | 3 | 30.2 | 2.6 | 29.3 | 9.8 | 11.3 | 1
COc1cccc(/C=C2\CCC/C(=C\c3ccc(Br)cc3)C2=O)c1OC | 35 | 77 | 20.1 | 31.5 | 0.9 | 1.6 | 0.4
COc1cccc(/C=C2\CCC/C(=C\c3c(Cl)cccc3Cl)C2=O)c1OC | 26.2 | 35 | 3.7 | 160 | 6.1 | 43.3 | 4.6
O=C1/C(=C/c2ccc(F)cc2)CCC/C1=C\c1ccc(F)cc1 | 24.7 | 68.7 | 4.3 | 34.4 | 1.4 | 8 | 0.5
COc1ccc(/C=C2\CCCCC2=O)cc1 | 54.8 | > 100 | 54 | 194 | 3.5 | 3.6 | –
O=C1/C(=C/c2ccc3c(c2)OCO3)CCC/C1=C\c1ccc2c(c1)OCO2 | > 100 | 78 | 22 | 257 | – | 11.7 | 3.3
COc1cc(/C=C/C(=O)CC(=O)/C=C/c2ccc(O)c(OC)c2)ccc1O [CURCUMIN] | 67.3 | 15 | > 100 | 36.8 | 0.5 | – | 2.5
COc1ccc(/C=C2\CCC/C(=C\c3ccc(OC)cc3)C2=O)cc1 | 63.6 | > 100 | 33.3 | 178 | 2.8 | 5.3 | –
COc1cccc(/C=C2\CCC/C(=C\c3ccccc3)C2=O)c1OC | 25.8 | 60 | 16.7 | 33.5 | 1.3 | 2 | 0.6
O=C1/C(=C/c2ccc(Cl)cc2)CCC/C1=C\c1ccc(Cl)cc1 | 16.2 | 85.3 | 3.6 | 32.1 | 2 | 8.9 | 0.4
O=C1/C(=C/c2c(Cl)cccc2Cl)CCC/C1=C\c1c(Cl)cccc1Cl | 83.9 | 93.5 | 4.9 | 574 | 6.8 | 117 | 6.1
COc1ccc(/C=C2\CCC/C(=C\c3ccccc3Cl)C2=O)cc1 | 26.6 | > 100 | 13 | 238 | 8.9 | 18.3 | –
COc1ccc(/C=C2\CCC/C(=C\c3ccc([N+](=O)[O-])cc3)C2=O)cc1 | > 100 | > 100 | > 100 | 435 | – | – | –
COc1ccc(/C=C2\CCC/C(=C\c3ccc(N(C)C)cc3)C2=O)cc1 | > 100 | > 100 | 91 | 392 | – | 4.3 | –
O=C1/C(=C/c2cccc(Br)c2)CCC/C1=C\c1cccc(Br)c1 | 33.3 | 63.2 | 2.3 | 35.9 | 1.1 | 15.6 | 0.6
COc1ccc(/C=C2\CCC/C(=C\c3c(Cl)cccc3Cl)C2=O)cc1 | 20.5 | 54.2 | 5.2 | 232 | 11.3 | 44.6 | 4.3
COc1ccc(/C=C2\CCC/C(=C\c3ccc(F)cc3)C2=O)cc1 | 21 | > 100 | 10.8 | 378 | 18 | 35 | –
